Laboratory results taken from PMC11266668, “Unraveling the mechanism of small molecule induced activation of Staphylococcus aureus signal peptidase IB” (Communications Biology, 2024).
Values after ≈ are worked out from the molar mass of the structure shown. Values joined by “and” are separate entries in the source; they are usually repeats but may differ in a detail not shown here. Equal values may be shown once.

How the values were obtained:
wt SpsB = target: T1, wt SpsB (Staphylococcus aureus, UniProt P0A070); test: FRET-based signal peptidase assay with membrane-bound SpsB (wt); assay type: biochemical, S. aureus; details: for wt A4 (normalized activity): replicates
T1 construct: recombinantly expressed full-length S. aureus SpsB (wt) or mutants; made in house; host or cells: E. coli BL21(DE3)pLysS, membrane fraction
Protocol: (§1) For preparation of E. coli membrane fractions harboring overexpressed S. aureus SpsB, E. coli BL21(DE3) pLysS cells harboring pET-55-DEST-fl-SpsB or respective mutant plasmids (F67A, Y75A, F158A, Q165A, F67A-Y75A, F67A-F158A, Y75A-F158A, F67A-Y75A-F158A) were grown in LB medium (supplemented with Ampicillin (100 µg/mL) and Chloramphenicol (34 µg/mL)) at 37°C (200 rpm) to OD600 ≈ 0.6 and protein overexpression was induced by the addition of isopropyl-1-thio-β-galactopyranoside (IPTG, 0.5 mM). After incubation (22 °C, 200 rpm, 3 h), cells were harvested by centrifugation (6000 × g, 4 °C, 10 min) and subsequently washed with PBS. The cell pellet was resuspended in 5 mL Tris-HCl buffer (50 mM, pH = 7.5) and lysed using a bead beater homogenizer (3 cycles: 5500 rpm for 45 s, 30 s cooling; Precellys Ceramic Kit CK01L, 7.0 mL tubes; Precellys 24 Homogenizer, Bertin Technologies). The lysate was centrifuged (12,000 × g, 4 °C, 10 min) to remove intact cells and debris. Membranes were collected from supernatant (39,000 × g, 4 °C, 75 min) and resuspended in ice-cold sodium phosphate buffer (50 mM, pH 7.5). Protein concentration was measured using the Pierce BCA Protein assay kit (Thermo Fisher Scientific, Pierce Biotechnology) and snap-frozen aliquots were stored at −80 °C.
(§2) Signal cleavage activities of recombinantly expressed full-length S. aureus SpsB (wt) or mutants (F67A, Y75A, F158A, Q165A, F67A-Y75A, F67A-F158A, Y75A-F158A, F67A-Y75A-F158A) in E. coli membranes were measured using a Förster Resonance Energy Transfer (FRET) assay as previously described[20],[36].
A synthetic peptide substrate based on SceD modified by 4-(4- dimethylaminophenylazo)benzoic (DABCYL) acid and 5-((2-aminoethyl)amino)-1- naphthalenesulfonic acid (EDANS) was used (DABCYL-[…]-EDANS, AnaSpec) as FRET substrate. Assays were performed with overexpressed wildtype SpsB (wt) or mutant (F67A, Y75A, F158A, Q165A, F67A-Y75A, F67A-F158A, Y75A-F158A, F67A-Y75A-F158A) in E. coli membranes. As controls for background activity, respective E. coli membranes without IPTG induction were used (see Experimental procedure “Preparation of E. coli membrane (control) fractions. Membranes containing recombinant wildtype SpsB or mutant (50 µg/mL membrane concentration, 100 µL/well final volume, sodium phosphate buffer, 50 mM, pH 7.5, addition of detergent if indicated; final concentrations in buffer: 0.1% CHAPS, 0.001% NP-40 or 0.1% Tween) were pre-treated with PK150, Arylomycin A4 or DMSO as a control (final concentration 1%) at 37 °C for 5 min. After addition of FRET substrate (10 µM final substrate concentration; final DMF concentration from substrate stock 1%), fluorescence turnover was monitored by an Infinite™ M Nano Tecan 200Pro reader (340 nm excitation and 510 nm emission wavelengths, fluorescence top reading mode) at 37 °C for at least 2 h.
The assay was performed in technical triplicates for at least three biologically independent experiments (n ≥ 3). Significance of cleavage activity was determined via a two-tailed Students t-test for comparison of membranes treated with DMSO to PK150.

SpsB F158A mutant = target: T2, SpsB F158A mutant (Staphylococcus aureus, UniProt P0A070, F158A); test: FRET-based signal peptidase assay with membrane-bound SpsB, F158A mutant; assay type: biochemical, S. aureus; details: for F158A A4 (normalized activity): replicates
T2 construct: recombinantly expressed full-length S. aureus SpsB (wt) or mutants; made in house; host or cells: E. coli BL21(DE3)pLysS, membrane fraction
T2 sequence (P0A070 1-191 F158A): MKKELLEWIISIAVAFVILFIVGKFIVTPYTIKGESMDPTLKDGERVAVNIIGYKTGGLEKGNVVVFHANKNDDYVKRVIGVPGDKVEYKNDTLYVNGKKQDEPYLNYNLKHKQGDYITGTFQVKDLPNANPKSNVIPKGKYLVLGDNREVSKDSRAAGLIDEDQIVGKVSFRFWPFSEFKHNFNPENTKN
Protocol: Cloning of full-length SpsB (fl-SpsB) was performed using the Invitrogen Gateway Technology in previous works by Le et al.. fl-SpsB was cloned into the destination vector pET-55-DEST (Novagen) and transformed into chemically competent E. coli BL21(DE3)pLysS cells (Promega) to prevent leaky protein overexpression. Plasmid DNA of wildtype SpsB pET-55-DEST-fl-SpsB was purified using a plasmid Miniprep Kit (peqGOLD Plasmid Miniprep Kit II, VWR Peqlab) according to the manufacturer’s instructions and used as template for all single point mutations (F67A, Y75A, F158A, Q165A). For double (F67A-Y75A, F67A-F158A, Y75A-F158A) or triple point (F67A-Y75A-F158A) mutations, the respective pET-55-DEST-fl-SpsB single point mutation or double point mutation plasmids were isolated and used as template for site-directed mutagenesis. Point mutation primers (Sigma) were designed based on the pET-55-dest-fl-SpsB construct according to the manufacturer’s instructions (Agilent). Primer sequences and order of point mutation introduction for all point mutations are listed in Supplementary Table S4. QuikChange site-directed mutagenesis PCR reactions were performed using either Phusion High-Fidelity DNA Polymerase (New England BioLabs, mutations: F67A, Q165A) or Q5 High-Fidelity DNA Polymerase (New England BioLabs, mutations: Y75A, F158A, F67A-Y75A, F67A-F158A, Y75A-F158A, F67A-Y75A-F158A) using the cycle listed below (Supplementary Table S5). The PCR mixture contained 10 µL GC buffer (NEB), 1 µL dNTP mix (10 mM), 1 µL forward primer (10 µM), 1 µL reverse primer (10 µM), 1 µL plasmid template (25 – 50 ng), 1.5 µL DMSO and 1 µL Phusion or Q5 High Fidelity DNA polymerase (NEB) and 33 µL ddH2O.
as §1, §2
A synthetic peptide substrate based on SceD modified by 4-(4- dimethylaminophenylazo)benzoic (DABCYL) acid and 5-((2-aminoethyl)amino)-1- naphthalenesulfonic acid (EDANS) was used (DABCYL-[…]-EDANS, AnaSpec) as FRET substrate. Assays were performed with overexpressed wildtype SpsB (wt) or mutant (F67A, Y75A, F158A, Q165A, F67A-Y75A, F67A-F158A, Y75A-F158A, F67A-Y75A-F158A) in E. coli membranes. […]

S. aureus NCTC 8325 = tested on: S. aureus NCTC 8325; design: method as in Le et al., Nat Chem. 2020; details: ref Le et al., Nat Chem. 2020; cited from earlier work

SMILES: CCC(C)CCCCCCCCC(=O)N(C)[C@H](CO)C(=O)N[C@H](C)C(=O)NCC(=O)N(C)C1C(=O)N[C@@H](C)C(=O)NC(C(=O)O)Cc2ccc(O)c(c2)-c2cc1ccc2O (stereo partly drawn) [Arylomycin A4]
- activity observed (comment) (wt SpsB; >= 6.25 µM A4, wt): no activity observed >= 6.25 µM A4
- wt A4 (normalized activity) (wt SpsB; A4 0.195uM): 45.9128 and 47.6989 and 41.1571 and 57.7909
- wt A4 (normalized activity) (wt SpsB; A4 0.39uM): 29.005 and 27.5696 and 32.0075 and 46.11
- wt A4 (normalized activity) (wt SpsB; A4 0.78uM): 22.2989 and 17.0381 and 18.021 and 27.9093
- wt A4 (normalized activity) (wt SpsB; A4 1.5625uM): 12.8972 and 7.451 and 11.5505 and 15.4289
- wt A4 (normalized activity) (wt SpsB; A4 3.125uM): 11.0377 and 3.5503 and 8.876 and 8.105
- wt A4 (normalized activity) (wt SpsB; A4 0,006uM): 95.8032 and 76.7916 and 108.843
- wt A4 (normalized activity) (wt SpsB; A4 6.25uM): 6.541 and -3.189 and 3.474 and 4.294
- wt A4 (normalized activity) (wt SpsB; A4 0,012uM): 85.1742 and 80.5391 and 106.049
- wt A4 (normalized activity) (wt SpsB; A4 12.5uM): 6.292
- wt A4 (normalized activity) (wt SpsB; A4 0,024uM): 82.0951 and 107.605 and 99.2001
- wt A4 (normalized activity) (wt SpsB; A4 25uM): 5.273
- wt A4 (normalized activity) (wt SpsB; A4 0,048uM): 88.089 and 72.2661 and 88.1109
- wt A4 (normalized activity) (wt SpsB; A4 50uM): 0
- wt A4 (normalized activity) (wt SpsB; A4 0,097uM): 68.2227 and 67.6529 and 63.3355 and 86.9713
- IC50 (wt SpsB; wt): 210 nM
- activity observed (comment) (SpsB F158A mutant; >= 6.25 µM A4, F158A): no activity observed >= 6.25 µM A4
- F158A A4 (normalized activity) (SpsB F158A mutant; A4 0,39µM): 32.4463 and 49.9171 and 42.4421 and 52.4288
- F158A A4 (normalized activity) (SpsB F158A mutant; A4 0,78µM): 16.172 and 26.1385 and 26.2791 and 38.6178
- F158A A4 (normalized activity) (SpsB F158A mutant; A4 0,006µM): 114.109 and 96.9597 and 113.52
- F158A A4 (normalized activity) (SpsB F158A mutant; A4 0,012µM): 105.97 and 95.3486 and 96.5076
- F158A A4 (normalized activity) (SpsB F158A mutant; A4 0,024µM): 106.863 and 85.3442 and 101.455
- F158A A4 (normalized activity) (SpsB F158A mutant; A4 25uM): 1.625
- F158A A4 (normalized activity) (SpsB F158A mutant; A4 0,049µM): 49.0532 and 88.7486 and 79.7833 and 90.4487
- F158A A4 (normalized activity) (SpsB F158A mutant; A4 50uM): 0
- F158A A4 (normalized activity) (SpsB F158A mutant; A4 0,097µM): 43.0655 and 77.8288 and 72.5853 and 85.1042
- F158A A4 (normalized activity) (SpsB F158A mutant; A4 0,195µM): 35.3889 and 69.8941 and 59.8004 and 66.9013
- F158A A4 (normalized activity) (SpsB F158A mutant; A4 3,125µM): 9.135 and 8.856 and 10.0772 and 7.1542
- F158A A4 (normalized activity) (SpsB F158A mutant; A4 6,25µM): 5.328 and 0 (3×)
- F158A A4 (normalized activity) (SpsB F158A mutant; A4 12,5uM): 3.344
- F158A A4 (normalized activity) (SpsB F158A mutant; A4 1,5626µM): 13.3342 and 20.0153 and 23.1869 and 21.923
- IC50 (SpsB F158A mutant; F158A mutant): 229 nM

SMILES: C[S+](C)[O-] [DMSO]
- wt DMSO + 0.001% NP-40 norm. value (wt SpsB; 0.001% NP-40, normalized to DMSO + 0.001% NP-40 (100), single biological replicates): 144.811 and 130.505
- wt DMSO + 0.01% Tween norm. value (wt SpsB; 0.01% Tween, normalized to DMSO + 0.01% Tween (100), single biological replicates): 133.237 and 138.302
- wt DMSO + 0.1% Chaps norm. value (wt SpsB; 0.1% Chaps, normalized to DMSO + 0.1% Chaps (100), single biological replicates): 187.838 and 176.739

SMILES: C#CCCC1(CCOC(=O)c2ccc(NC(=O)Nc3ccc(Cl)c(C(F)(F)F)c3)cc2)N=N1 [PK150-P, 2-(3-(But-3-inyl)-3H-diazirin-3-yl)ethyl4-(3-(4-Chloro-3trifluoromethylphenyl)ureido) benzoate]
- MIC (S. aureus NCTC 8325): 1.0 µM (≈ 0.479 µg/mL)
